We go through 30 compounds from patent US4771057A, “Reduced pyridyl derivatives with cardiovascular regulating properties” (University of Alberta, priority 1986, dated 1988).

Like-named read-outs stand apart in the source and are kept apart here.

In the assay the target is guinea pig ileal longitudinal smooth muscle. Description: Calcium channel antagonist testing: inhibition of muscarinic receptor-mediated Ca2+-dependent contraction (response to CD) of guinea pig ileal longitudinal smooth muscle. The following applies: for IC50: 50% inhibition of tonic contraction to CD 5×10^-7 M, compound added 10 min before CD, 37° C., pH 7.4, read-out: Calcium channel antagonist act., inhib. act. on contractile response to CD, ID50; for calcium channel antagonist activity, comparison to Nifedipine (TM): conclusion from Table 7. Format: cell-based. The method, then: Male albino guinea pigs (body weight 300-450 g) were sacrificed by decapitation. The intestine was removed above the ileo-caecal junction. Longitudinal smooth muscle segments of 2 cm length were mounted under a resting tension of 300-400 mg. […] The muscles were equilibrated for 1 h with a solution change every 15 min. Two successive control contractions were elicited at 15 min intervals with 5×10^-7 M cis-2-methyl- 4-dimethylaminomethyl-1,3-dioxolane methiodide (CD). The isometric contractions were recorded with a force displacement transducer (FT 03C) on a GRASS physiograph. The means of the two contractile responses was taken as the 100% value for the tonic (slow) component of the response. The muscle was washed with Hepes saline solution and was allowed to re-equilibrate. The calcium antagonist (test compound) was added ten min before the dose-response for CD was determined. The drug-induced inhibition of contraction was expressed as percent of control. The ID50 values were graphically determined from the concentration-response curves.

As to “3,5-Dicyano-2,6-dimethyl-4-{3'-[N--methoxycarbonyl-1',2'-(1',6'-)dihydropyridyl]}-1,4-dihydropyridine [Compound D-48]”, the IC50 amounted to 34000 nM. With “3-Isobutyl-5-methyl 2,6-dimethyl-4-{3'-[N--methoxycarbonyl-1',2'-(1',6'-)dihydropyridyl]}-1,4-dihydropyridine-3,5-dicarboxylate [Compound D-43]”, the IC50 was 31 nM and the “calcium channel antagonist activity, comparison to Nifedipine (TM)” value (“calcium channel antagonist activity” for short) is given as “active calcium channel antagonists, being comparable to Nifedipine (TM)”. Consider “3-Isobutyl-5-methyl 2,6-dimethyl-4-{3'-[N--phenoxycarbonyl-1',2'-(1',6'-)dihydropyridyl]}-1,4-dihydropyridine-3,5-dicarboxylate [Compound D-44]”, for which the IC50 was 45 nM and the “calcium channel antagonist activity” value is “active calcium channel antagonists, being comparable to Nifedipine (TM)”. On to “3-Methyl 5-cyano-2,6-dimethyl-4-{3'-[N--methoxycarbonyl-1',2'-(1',6'-)dihydropyridyl]}-1,4-dihydropyridine-3-carboxylate [Compound D-46]”, for which the IC50 is 52000 nM. For `COC(=O)C1=C(C)NC(C)=C(C(=O)OC)C1c1ccccn1` [Compound D-1, 3,5-dimethyl 2,6-dimethyl-4-(2'-pyridyl)-1,4-dihydropyridine-3,5-dicarboxylate], the IC50 (Cavia porcellus) turned out to be 2320 nM.

For the compound `COC(=O)C1=C(C)NC(C)=C(C(=O)OC(C)C)C1c1ccccn1` [Compound D-2, 3-Isopropyl-5-methyl 2,6-dimethyl-4-(2'-pyridyl)-1,4-dihydropyridine-3,5-dicarboxylate], the “calcium channel antagonist activity” value was “active calcium channel antagonists, being comparable to Nifedipine (TM)”. Further, the IC50 (Cavia porcellus) turned out to be 95.6 nM.

With `COC(=O)C1=C(C)NC(C)=C(C(=O)OCC(C)C)C1c1ccccn1` [Compound D-3, 3-Isobutyl-5-methyl 2,6-dimethyl-4-(2'-pyridyl)-1,4-dihydropyridine-3,5-dicarboxylate], the “calcium channel antagonist activity” value is given as “active calcium channel antagonists, being comparable to Nifedipine (TM)”. In addition, the IC50 (Cavia porcellus) came to 41 nM.

Consider `COC(=O)C1=C(C)NC(C)=C(C(=O)OCCN(C)C)C1c1ccccn1` [Compound D-4, 3-[2-(N,N--dimethylamino)ethyl]-5-methyl 2,6-dimethyl-4-(2'-pyridyl)-1,4-dihydropyridine-3,5-dicarboxylate], for which the IC50 (Cavia porcellus) stood at 43600 nM. Still for that read-out and setting: as for `COC(=O)C1=C(C)NC(C)=C(C(=O)OC)C1c1cccnc1` [Compound D-5, 3,5-Dimethyl 2,6-dimethyl-4-(3'-pyridyl)-1,4-dihydropyridine-3,5-dicarboxylate], the figure is 3830 nM. With `COC(=O)C1=C(C)NC(C)=C(C(=O)OC(C)C)C1c1cccnc1` [Compound D-6, 3-Isopropyl-5-methyl 2,6-dimethyl-4-(3'-pyridyl)-1,4-dihydropyridine-3,5-dicarboxylate], the “calcium channel antagonist activity” value was “active calcium channel antagonists, being comparable to Nifedipine (TM)”. Further, the IC50 (Cavia porcellus) was determined as 97 nM. Regarding `COC(=O)C1=C(C)NC(C)=C(C(=O)OCC(C)C)C1c1cccnc1` [Compound D-7, 3-Isobutyl-5-methyl 2,6-dimethyl-4-(3'-pyridyl)-1,4-dihydropyridine-3,5-dicarboxylate], the “calcium channel antagonist activity” value is given as “active calcium channel antagonists, being comparable to Nifedipine (TM)”. The IC50 (Cavia porcellus) was 56000 nM. As to `COC(=O)C1=C(C)NC(C)=C(C(=O)OCCN(C)C)C1c1cccnc1` [Compound D-8, 3-[2-(N,N--dimethylamino)ethyl]-5-methyl 2,6-dimethyl-4-(3'-pyridyl)-1,4-dihydropyridine-3,5-dicarboxylate], the IC50 (Cavia porcellus) was determined as 33400 nM. Still for that read-out and setting: to `COC(=O)C1=C(C)NC(C)=C(C(=O)OC)C1c1ccncc1` [Compound D-9, 3,5-Dimethyl 2,6-dimethyl-4-(4'-pyridyl)-1,4-dihydropyridine-3,5-dicarboxylate] belongs 5000 nM. Take `COC(=O)C1=C(C)NC(C)=C(C(=O)OC(C)C)C1c1ccncc1` [Compound D-10, 3-Isopropyl-5-methyl 2,6-dimethyl-4-(4'-pyridyl)-1,4-dihydropyridine-3,5-dicarboxylate]: the “calcium channel antagonist activity” value was “active calcium channel antagonists, being comparable to Nifedipine (TM)”. In addition, under “Cavia porcellus”, the IC50 turned out to be 560 nM. On to `COC(=O)C1=C(C)NC(C)=C(C(=O)OCC(C)C)C1c1ccncc1` [Compound D-11, 3-Isobutyl-5-methyl 2,6-dimethyl-4-(4'-pyridyl)-1,4-dihydropyridine-3,5-dicarboxylate], for which the “calcium channel antagonist activity” value is “active calcium channel antagonists, being comparable to Nifedipine (TM)”. In addition, the IC50 (Cavia porcellus) amounted to 220 nM. On to `COC(=O)C1=C(C)NC(C)=C(C(=O)OCCN(C)C)C1c1ccncc1` [Compound D-12, 3-[2-(N,N--dimethylamino)ethyl] -5-methyl 2,6-dimethyl-4-(4'-pyridyl)-1,4-dihydropyridine-3,5-dicarboxylate], for which, under “Cavia porcellus”, the IC50 is 51300 nM. As to `CCOC(=O)C1=C(C)NC(C)=C(C(=O)OCC)C1c1ccccn1` [Compound D-13, 3,5-diethyl 2,6-dimethyl-4-(2'-pyridyl)-1,4-dihydropyridine-3,5-dicarboxylate], the IC50 (Cavia porcellus) amounted to 180 nM. For the compound `CC1=C(C(=O)OC(C)C)C(c2ccccn2)C(C(=O)OC(C)C)=C(C)N1` [Compound D-14, 3,5-Diisopropyl 2,6-dimethyl-4-(2'-pyridyl)-1,4-dihydropyridine-3,5-dicarboxylate], the “calcium channel antagonist activity” value was “active calcium channel antagonists, being comparable to Nifedipine (TM)”. In addition, the IC50 (Cavia porcellus) amounted to 125 nM. In the case of `CC1=C(C(=O)OCC(C)C)C(c2ccccn2)C(C(=O)OCC(C)C)=C(C)N1` [Compound D-15, 3,5-Diisobutyl 2,6-dimethyl-4-(2'-pyridyl)-1,4-dihydropyridine-3,5-dicarboxylate], the “calcium channel antagonist activity” value was “active calcium channel antagonists, being comparable to Nifedipine (TM)”. The IC50 (Cavia porcellus) was determined as 93.6 nM. For `CCOC(=O)C1=C(C)NC(C)=C(C(=O)OCC)C1c1cccnc1` [Compound D-17, 3,5-Diethyl 2,6-dimethyl-4-(3'-pyridyl)-1,4-dihydropyridine-3,5-dicarboxylate], the “calcium channel antagonist activity” value is given as “active calcium channel antagonists, being comparable to Nifedipine (TM)”. For the same compound, the IC50 (Cavia porcellus) was found to be 346 nM.

Turning to `CC1=C(C(=O)OC(C)C)C(c2cccnc2)C(C(=O)OC(C)C)=C(C)N1` [Compound D-18], the “calcium channel antagonist activity” value is given as “active calcium channel antagonists, being comparable to Nifedipine (TM)”. For the same compound, the IC50 (Cavia porcellus) was 260 nM.

Consider `CC1=C(C(=O)OCCN(C)C)C(c2cccnc2)C(C(=O)OCCN(C)C)=C(C)N1` [Compound D-20, 3,5-Bis-[2-(N,N--dimethylamino)ethyl]2,6-dimethyl-4-(3'pyridyl)-1,4-dihydropyridine-3,5-dicarboxylate], for which, for the setting “Cavia porcellus”, the IC50 worked out at 179000 nM. In the case of `CC1=C(C(=O)OC(C)C)C(c2ccncc2)C(C(=O)OC(C)C)=C(C)N1` [Compound D-22, 3,5-Diisopropyl 2,6-dimethyl-4-(4'-pyridyl)-1,4-dihydropyridine-3,5-dicarboxylate], the “calcium channel antagonist activity” value was “active calcium channel antagonists, being comparable to Nifedipine (TM)”. In addition, the IC50 (Cavia porcellus) came to 231 nM. In the case of `CC1=C(C(=O)OCC(C)C)C(c2ccncc2)C(C(=O)OCC(C)C)=C(C)N1` [Compound D-23, 3,5-Diisobutyl 2,6-dimethyl-4-(4'-pyridyl)-1,4-dihydropyridine-3,5-dicarboxylate], the “calcium channel antagonist activity” value was “active calcium channel antagonists, being comparable to Nifedipine (TM)”. Under “Cavia porcellus”, the IC50 was found to be 580 nM. As to `COC(=O)C1=C(C)NC(C)=C(C#N)C1c1ccncc1` [Compound D-26], the IC50 (Cavia porcellus) stood at 87700 nM. For the compound `CC1=C(C#N)C(c2cccnc2)C(C#N)=C(C)N1` [Compound D-27, 3,5-dicyano-2,6-dimethyl-4-(3'-pyridyl)-1,4-dihydropyridine], the IC50 (Cavia porcellus) came to 357000 nM. Same read-out and setting: as for `CC1=C(C#N)C(c2ccncc2)C(C#N)=C(C)N1` [Compound D-28, 3,5-dicyano-2,6-dimethyl-4-(4'-pyridyl)-1,4-dihydropyridine], the figure is 130000 nM.

On to `CC1=C(C(=O)OCC(C)C)C(C2=CCN(C(=O)Oc3ccccc3)C=C2)C(C(=O)OCC(C)C)=C(C)N1` [Compound D-56, Diisobutyl 2,6-dimethyl-4-[4'-(N--phenoxycarbonyl)]-1,4-di-hydropyridine-3,5-dicarboxylate], for which the “calcium channel antagonist activity” value is recorded as “active calcium channel antagonists, being comparable to Nifedipine (TM)”. Also, for the setting “Cavia porcellus”, the IC50 is 510 nM. With `COC(=O)N1C=CC(C2C(C#N)=C(C)NC(C)=C2C#N)=CC1` [Compound D-59, 3,5-Dicyano-2,6-dimethyl-4-[4'-(N--methoxycarbonyl)]-1,4-dihydropyridine], the IC50 (Cavia porcellus) is 67500 nM. The same measure, in the same setting: to `COC(=O)C1=C(C)NC(C)=C(C(=O)OCC(C)C)C1C1=CCN(C(=O)OC)C=C1` [Compound D-60, 3-Isobutyl-5-methyl 2,6-dimethyl-4-[4'-(N--methoxycarbonyl)]-1,4-dihydropyridine-3,5-dicarboxylate] belongs 1760 nM.
